According to US5800991A, “Nucleotide or nucleoside photoaffinity compound modified antibodies, methods for their manufacture and use thereof as diagnostics and therapeutics” (University of Kentucky Research Foundation, priority 1996, dated 1998):
“Also recorded” adds a separate entry of the source. Read-outs that look alike come from different tables or passages of the source.

How the values were obtained:
8019 antibody [1] = experiment: Inhibition by ATP of [γ^32 P]8-N3 ATP photolabeling of 8019 antibody; assay type: binding; conditions: 8019, 200 μM [γ^32 P]8-N3 ATP, in words
Procedure: (§1) Antibodies (3 μg) were incubated with 200 μM [γ^32 P]8-N3 ATP (5-30 mCi/μmole) in a final volume of 30 μL for 1 minute and photolyzed with a hand-held UV lamp at 254 nm for 1 min. The reactions were quenched with protein solubilizing mixture (10% SDS, 3.6M urea, 162 mM DTT, Pyronin Y and 20 mM Tris, pH 8.0) and analyzed by 6-14% gradient SDS-PAGE. The gels were stained with Coomassie Brilliant Blue, destained, and dried using a slab gel drier. ^32 P incorporation was detected by autoradiography and quantified by either scanning on an optical Image and Acquisition Analysis (Ambis, Inc.) or by cutting the appropriate band from the gel counting the radioactivity by liquid scintillation counting.
(§2) Antibody S1C5 (Maloney et al, Hybridoma, 4:191-209 (1985)), and 8019 (Koprowsky et al, Somat. Cell. Genet., 5:957-961 (1979)) each (3 μg) were incubated with increasing concentrations of [γ^32 P]8-N3 ATP for 1 min at 4° C. and photolyzed and analyzed as described above. Protection of photolabeling of S1C5 and 8019 was performed by incubating […] of antibodies with increasing concentrations of ATP for 2 min followed by incubation with 200 μM [γ^32 P]8-N3 ATP for 1 min and photolyzed and analyzed as described above. […]

SIC5 antibody [2] = experiment: Inhibition by ATP of [γ^32 P]-8-N3 ATP photoincorporation into SIC5 (S1C5) antibody; assay type: binding, murine
Procedure: The SIC5 antibody was again labeled, but in this example labeling was performed in the presence of increasing amounts of free ATP. Specifically,3 μg of the SIC5 antibody was photolyzed in the presence of 200 μm [γ^32 P]-8-N3 ATP using concentrations of ATP ranging from 0 to 700 μm. The labeled protein was again separated by SDS-PAGE; and radioactivity determined by liquid scintillation counting.
as §1
(§3) Antibody S1C5 (Maloney et al, Hybridoma, 4:191-209 (1985)), and 8019 (Koprowsky et al, Somat. Cell. Genet., 5:957-961 (1979)) each (3 μg) were incubated with increasing concentrations of [γ^32 P]8-N3 ATP for 1 min at 4° C. and photolyzed and analyzed as described above. Protection of photolabeling of S1C5 and 8019 was performed by incubating […] of antibodies with increasing concentrations of ATP for 2 min followed by incubation with 200 μM [γ^32 P]8-N3 ATP for 1 min and photolyzed and analyzed as described above. Protection experiments using amino acids were performed by incubating 3 μg of S1C5 antibody with increasing concentrations of amino acids for 2 min, followed by incubation with 200 μM [γ^32 P]8-N3 ATP for 1 min. Photolysis and analysis were performed as described.

S1C5 antibody [3] = experiment: Quantitative immuno-precipitation of [γ^32 P]8-N3 ATP labeled S1C5 (stoichiometry); assay type: binding, murine; conditions: triplicate experiments
Text: Amino acid sequence of S1C5 and 8019 were deduced from the cloned and sequenced V genes (FIG. 12c). The identified peptides from photoaffinity labeling corresponded to sequences located in the variable Ig domain. The peptides eluted first (T1) from each antibody are derived from the CDR1 domain of the variable light chain extending into FR2. The second eluted peptides (T2) are from the CDR3-FR4 region of the variable heavy chain domain. It is striking that both peptides included invariant aromatic residues, Trp H103 in the VH domain and the highly conserved Tyr L36 within the VL domain.

SIC5 antibody [4] = experiment: Photolabeling saturation of SIC5 (S1C5) antibody with [γ^32 P]-8-N3 ATP; assay type: binding, murine
Procedure: In particular, 3 μg of SIC5 antibody in […] of photolysis buffer was photolyzed with increasing concentrations of [γ^32 P]-8-N3 ATP and then separated by SDS-PAGE. ^32 P incorporation was detected by autoradiography and quantified by scanning on Optical Imaging Acquisition Analysis (Ambis, Inc.). Photoincorporation was quantitatively confirmed by cutting the appropriate band and determining radioactivity by liquid scintillation counting. […] It can further be seen that there is a defined saturating concentration of probe at about 200 μm for both chains. This saturation plateau provides strong evidence that there exists a unique and limited number of affinity sites of the antibody which are bound by the [γ^32 P]-8-N3 ATP compound.
as §1, §3

8019 antibody [5] = experiment: Photolabeling saturation of 8019 antibody with [γ^32 P]8-N3 ATP; assay type: binding; conditions: 8019, Example 10
Procedure: as §1, §2

antibody affinity site = experiment: Protection experiments with nucleotides and nucleosides against [γ^32 P]8-N3 ATP photolabeling; assay type: binding; conditions: data not shown
Procedure: as §1, §2

S1C5 antibody [6] = experiment: Protection of S1C5 photolabeling by amino acids; assay type: binding, murine; conditions: 200 μM [γ^32 P]8-N3 ATP
Procedure: as §1, §2

[7] = system: CEA antigen, LS174T tumor cells; experiment: Competition of γ^32 P-labeled 8019 binding to its cellular target by unlabeled antibody; assay type: cell-based; conditions: data not shown
Procedure: (§4) To determine whether the modification of this site affects antigen recognition the binding of photolabeled S1C5 (IgG2a, κ) and 8019 (IgG1, κ) to their respective antigens was tested, S1C5 is specific for a murine B-cell tumor idiotype 38C13 (13) and 8019 recognizes the CEA antigen (Koprowsky et al, Somat. Cell. Genet., 5:957-961 (1979)), expressed by the LS17T4 tumor cell line. […] Also, these same antibodies were photomodified with biotinylated 8-N3 adenosine and used in FACS. […] A comparison of the photoaffinity biotinylated antibodies with conventionally biotinylated antibodies in FACS produced nearly identical staining (manuscript submitted).

LS174T tumor cells = experiment: FACS of biotinylated 8-azidoadenosine labeled 8019; assay type: cell-based; conditions: biotinylated 8-N3 adenosine modified antibody
Procedure: (§5) Tumor cells (38C13 and LS174T, 1×10^6) were incubated with biotinylated 8-azidoadenosine labeled antibody S1C5 or 8019 (manuscript submitted) for 60 min. on ice. After washing with 5% FCS/PBS, Neutralite Avidin-FITC (Southern Biotechnology Associates, Inc.) was added and incubated for 30 min., fixed and subjected to flow cytometry. FACS data were generated front a minimum of 9900 cells per sample.
as §4

[8] = system: murine B-cell tumor idiotype 38C13; experiment: Competition of γ^32 P-labeled S1C5 binding to its cellular target by unlabeled antibody; assay type: cell-based; conditions: 38C13, data not shown
Procedure: as §4

38C13 tumor cells = experiment: FACS of biotinylated 8-azidoadenosine labeled S1C5; assay type: cell-based, murine; conditions: biotinylated 8-N3 adenosine modified antibody
Procedure: as §5, §4

Nc1ncnc2c1ncn2[C@@H]1O[C@H](COP(=O)(O)OP(=O)(O)OP(=O)(O)O)[C@@H](O)[C@H]1O [ATP]
protection against photolabeling by ATP (8019 antibody [1]): Photolabeling could be prevented; also recorded: photolabeling is inhibited by ATP | IC50 (SIC5 antibody [2]; 200 μm [γ^32 P]-8-N3 ATP, ATP 0 to 700 μm, Example 2, read-out: ATP concentration for 50% inhibition of labeling): ~350 µM | IC50 (SIC5 antibody [2]; ATP vs [γ^32 P]-8-N3 ATP, FIG. 2 legend, read-out: 50% inhibition of photoincorporation): ~350 µM | protection against photolabeling by ATP (SIC5 antibody [2]; S1C5, 200 μM [γ^32 P]8-N3 ATP, in words): Photolabeling could be prevented; also recorded: photolabeling is inhibited by ATP

[N-]=[N+]=Nc1nc2c(N)ncnc2n1[C@@H]1O[C@H](COP(=O)(O)OP(=O)(O)O[32P](=O)(O)O)[C@@H](O)[C@H]1O [[γ^32 P]-8-N3 ATP]
average number of molecules of 8-N3 ATP/Ig molecule (S1C5 antibody [3]): 1.9±0.2 molecules of 8-N3 ATP/Ig molecule | saturation of photolabeling (SIC5 antibody [4]; S1C5, Example 10): 150 to 175 µM | Kd (SIC5 antibody [4]; S1C5, Example 10, read-out: apparent Kd): 75 µM | saturating concentration of probe (SIC5 antibody [4]; [γ^32 P]-8-N3 ATP, both heavy and light chains, Example 1): about 200 μm | photoincorporation into heavy and light chains (SIC5 antibody [4]; in words, Example 1): covalently attaching to both antibody heavy and light chains; also recorded: covalently attached to both heavy and light chains | saturation of photolabeling (8019 antibody [5]): about 50 μM | Kd (8019 antibody [5]; read-out: apparent Kd): 25 µM

[N-]=[N+]=Nc1nc2c(N)ncnc2n1[C@@H]1O[C@H](CO)[C@@H](O)[C@H]1O [8-azidoadenosine]
binding relative to 8-N3 ATP (antibody affinity site): tighter binding than 8-N3 ATP

N[C@@H](Cc1c[nH]c2ccccc12)C(=O)O [tryptophan]
protection against photolabeling by amino acids (S1C5 antibody [6]): best protection

B1: 8019: IgG1, κ antibody; recognizes the CEA antigen expressed by the LS17T4 tumor cell line (protein)
chain: DIVLTQSPASLSASVGETVTITCRASENIYSYLLWYQQKQGKSPQLLVYNAKTLAEGVPSRFSGSGSGTQFSLKINSLQPEDFGSYFCQHHFGTPWTFGGGTSLEIKRAEVNLEESGGGLVQPGGSMKLSCAASGFTESDAWMDWVRQSPEKGLEWVAEIRTKVNNHATYYAESVKGRFTISRDDSKSNVYLQMNSLRVEDTGIYYCTMAYYEAYWGQGTLVTSAAK
modifications: photoaffinity label in the variable domains as tested: biotinylated 8-azidoadenosine (FACS) or [gamma-32P]8-N3ATP (cell binding competition); labelled residue not fixed
notes: IgG1, κ antibody; recognizes the CEA antigen expressed by the LS17T4 tumor cell line
inhibition of γ^32 P-labeled antibody binding by unlabeled antibody [7]: inhibited on an apparent 1:1 ratio by unlabeled antibodies | binding to tumor cell targets by flow cytometry (LS174T tumor cells): recognized their specific tumor cell targets

B2: S1C5: anti-B cell lymphoma idiotype antibody; specific for a murine B-cell tumor idiotype 38C13 (protein)
chain: QIVLTQSPAINSASLGERVTMTCTASSSVSSSYFHWYQQKQGSSPKLWIYTTSNLASGVPARFSGSGSGTSYSLTISSMEAEDAATYYCHQYHRSPLTFGAGTKLELKRAQVQLQQSDAILVKPGASVKISCKASGYTFTDHVIHWVKQRPEQLGEWIGFISPGNGDIRYNEKFKDKATADKSSSTAYMQLNSLTSEDSAVYFCKRSFYYYDDNYGDYWGQGTTLTVSSAK
modifications: photoaffinity label in the variable domains as tested: biotinylated 8-azidoadenosine (FACS) or [gamma-32P]8-N3ATP (cell binding competition); labelled residue not fixed
notes: anti-B cell lymphoma idiotype antibody; specific for a murine B-cell tumor idiotype 38C13
inhibition of γ^32 P-labeled antibody binding by unlabeled antibody [8]: inhibited on an apparent 1:1 ratio by unlabeled antibodies | binding to tumor cell targets by flow cytometry (38C13 tumor cells): recognized their specific tumor cell targets
